{"source": "patent US20220356170A1", "about": "“SREBP INHIBITOR COMPRISING A THIOPHENE CENTRAL RING” (Capulus Therapeutics, LLC, priority 2019, published 2022)", "key": {"[1]": {"assay": "Half-life in human liver microsomes", "format": "in vitro ADME", "details": "NADPH, 37° C., read-out: Human LM: Half life", "experimental": "(§1) Half-life Human Microsomes: Compound 1 was evaluated for stability in human liver microsomes. A 10 mM stock solution of Compound 1 was prepared in DMSO and diluted with water: acetonitrile (1:1) to a concentration of 1 mM. A working concentration of 100 μM was prepared by further dilution with water: acetonitrile (1:1). To make the preincubation mixture, 2.5 μL of the diluted Compound 1 was combined with 75 μL of human liver microsomes at 3.33 mg/mL, and 85 μL of 100 mM potassium phosphate buffer, and this mixture pre-incubated for 10 min at 37° C. To make the 60 minute mixture without cofactor, 32.5 μL of the preincubation mixture was combined with 17.5 μL of 100 mM potassium phosphate buffer and incubated for 60 min at 37° C. To make the 0 min sample with cofactor (NADPH), 16.25 μL of the preincubation mixture was combined with 200 μL of acetonitrile containing internal standard and 8.75 μL of cofactor (NADPH). […] To prepare the sample mixture to be evaluated, 25 μL incubation mixture was combined with 200 μL of acetonitrile containing internal standard and vortexed for 5 min at 1200 rpm, then centrifuged for 10 min at 4000 rpm. […] The sample mixture was evaluated by LC-MS/MS using 10 mM ammonium acetate with 0.1% FA as the aqueous mobile phase, and methanol as the organic mobile phase."}, "[2]": {"assay": "In vivo pharmacokinetics, intravenous", "details": "male C57 BL/6 mice, dose 2.00 mg/kg (Compound 1), 2.43 mg/kg (Compound 2); for Vd: male, C57 BL/6, mouse, iv", "experimental": "The in vivo pharmacokinetic properties of Compound 1 by both intravenous and oral administration were evaluated in male C57 BL/6 mice. The in vivo pharmacokinetic properties of Compound 2 by both intravenous and oral administration were evaluated in male C57 BL/6 mice for comparison.\nAnimals were housed in cages with clean bedding. Certified rodent diet was provided. Water was available ad libitum. Environmental controls for the animal room were set to maintain a temperature of 22 to 25° C., humidity of 40-70% RH, and a 12-hour light /12-hour dark cycle. Normal healthy animals certified by the attending veterinarian were selected and acclimatized for minimum three days prior to initiation of study.\nProcedure for Blood Withdrawal: Mice were anesthetized using gaseous anesthesia. Blood samples were collected through a capillary, guided in retro-orbital plexus. At each time point, blood samples from 3 mice of each respective group were collected. The blood samples were collected in pre-labeled tubes. 0.2 to 0.3 mL of blood were collected from each mouse. After collection of the blood samples at each time point, the samples were stored on ice prior to centrifugation. Blood samples were centrifuged within 15 minutes to separate plasma. Centrifugations was done at 1540 rcf (5000 rpm) at 4° C. for 10 minutes. The plasma was separated and transferred to pre-labeled micro-centrifuge tubes and promptly frozen at −80±10° C. until bioanalysis was performed. Samples were identified by test item, group, animal number, and collection time point.\nTo evaluate pharmacokinetic properties of intravenous delivery, nine male C57 BL/6 mice were administered 2.00 mg Compound 1/kg animal weight through the tail vein. The concentration of Compound 1 in the plasma of the animals was evaluated at 0.083, 0.25, 0.5, 1, 2, 4, 8, and 24 hr by taking blood samples from the mice. Compound 2 was similarly administered for comparison."}, "[3]": {"assay": "Half-life in mouse liver microsomes", "format": "in vitro ADME", "details": "read-out: Mouse LM: Half life", "experimental": "as §1, with “C.” for “C. To make the 0 min sample with cofactor (NADPH), 16.25 μL of the preincubation mixture was combined with 200 μL of acetonitrile containing internal standard and 8.75 μL of cofactor (NADPH).”\nHalf-life Rat and Mouse Microsomes: Compound 1 was evaluated in rat and mouse liver microsomes following a similar procedure as described above for human liver microsomes."}, "[4]": {"assay": "Kinetic solubility", "format": "physicochemical", "details": "aqueous buffer, kinetic from dmso stock, pH 7.4 buffer, room temperature, 1.0% DMSO", "experimental": "Kinetic Solubility Procedure: A 10 mM stock solution of Compound 1 was prepared in DMSO, then 4 μL of the stock was added to a deep well plate containing 396 μL of pH 7.4 buffer. The sample plate was vortexed at 800 rpm for 24 h on thermomixer at room temperature. The plate was sealed well during the incubation process. The DMSO content in the sample was 1.0%. The concentration of Compound 1 in the final incubation was 100 μM. At the end of the incubation period, the sample plate was centrifuged at 4000 rpm for 10 min and analyzed in LC-UV against a calibration curve (CC)."}, "[5]": {"assay": "In vitro % Fu, human plasma", "format": "in vitro ADME", "details": "read-out: In Vitro % Fu (Hu Plasma)"}, "[6]": {"assay": "Log D, octanol/aqueous buffer partitioning", "format": "physicochemical", "details": "1-octanol/aqueous buffer; 1-octanol/buffer", "experimental": "Log D Procedure: The Log D of Compound 1 was evaluated by octanol/aqueous buffer partitioning. 500 μL of organic phase (1-octanol) was added to each well of a 2 mL deep well plate, followed by 500 μL of buffer and 15 μL of test compound in DMSO (0.15 mM). The plate was vortexed for 10 seconds and incubated at room temperature for 1 hr on a plate shaker at 200 rpm. After incubation, the samples were allowed to equilibrate for 20 min and then centrifuged at 4000 rpm for 30 min for complete phase separation. The distribution of test compound in buffer and octanol phase was analyzed by HPLC-UV. Log D=Log (Area of Octanol/Area of Buffer)"}, "[7]": {"test_system": "SREBP Target Gene in HepG2 cells", "assay": "Q-PCR analysis of SREBP target gene expression", "format": "cell-based", "details": "500 nM, 48 hour", "experimental": "The effect of Compound 1 on the gene expression of HepG2 cells was evaluated.\nHepG2 cells (P2) were seeded in 24 well plate (80,000 cells/ well) for RNA extraction and in a 96 well plate (10,000 cells/ well) for Cell Titer Glow (CTG). The media used was DMEM and contained 10% FBS. Compound 1 was evaluated at […] for 48 hours. Two biological replicates per experimental group were evaluated for RNA, and 3 biological replicates per experimental group analyzed with CTG.\nFor gene analysis RNA was harvested with RNEasy kit and 20-100 ng used to synthesize cDNA with random primers. Quantitative PCR was performed on 1 pg to 100 ng cDNA for the following genes: ACACA, ACLY, FASN, LSS, PNPLA3. Gene expression levels were determined using […] comparing treated to mock or vehicle treated cells as a baseline."}, "[8]": {"details": "treated compared to mock or vehicle treated cells as baseline"}}, "note": "Like-named read-outs stand apart in the source and are kept apart here."}
{"smiles": "CC(C)(O)c1cc(-c2csc(-c3ccc(C(=O)N4CCC(O)CC4)cc3Cl)c2)ccn1", "note": "[Compound 1, (3-chloro-4-(4-(2-(2-hydroxypropan-2-yl)pyridin-4-yl)thiophen-2-yl)phenyl)(4-hydroxypiperidin-1-yl)methanone]", "values": [{"measurement": "half-life at 1 µM", "setting": "[1]", "value": 1.08, "unit": "h"}, {"measurement": "AUCExtra", "setting": "[2]", "value": 7.27, "unit": "%"}, {"measurement": "Vd", "setting": "[2]; plasma, read-out: Vd", "value": 0.73, "unit": "L/kg"}, {"measurement": "Vd", "setting": "[2]; plasma, read-out: Vss", "value": 0.7, "unit": "L/kg"}, {"measurement": "AUC(0-inf)", "setting": "[2]; mouse, plasma", "value": 25.7, "unit": "µg·h/mL"}, {"measurement": "AUC(0-t)", "setting": "[2]; mouse, plasma", "value": 23.8, "unit": "µg·h/mL"}, {"measurement": "C0", "setting": "[2]; mouse, plasma", "value": 4.63, "unit": "µg/mL"}, {"measurement": "clearance", "setting": "[2]; mouse, plasma", "value": 0.078, "unit": "L/h/kg"}, {"measurement": "half-life", "setting": "[2]; mouse, plasma", "value": 6.5, "unit": "h"}, {"measurement": "MRT last", "setting": "[2]; mouse, plasma, read-out: MRT0-last", "value": 7.07, "unit": "h"}, {"measurement": "half-life at 1 µM", "setting": "[3]", "value": 2, "unit": "h"}, {"measurement": "solubility kinetic at 24 h", "setting": "[4]", "value": 37, "unit": "µM"}, {"measurement": "fraction unbound", "setting": "[5]", "value": 0.026}, {"measurement": "logD", "setting": "[6]", "value": 3.38}, {"measurement": "Total Gene Average", "setting": "[7]; average of ACACA, ACLY, FASN, LSS, PNPLA3", "value": 0.467}, {"measurement": "ACACA gene expression (Q-PCR)", "setting": "[7]; [8]", "value": 0.648}, {"measurement": "ACLY gene expression (Q-PCR)", "setting": "[7]; [8]", "value": 0.663}, {"measurement": "FASN gene expression (Q-PCR)", "setting": "[7]; [8]", "value": 0.542}, {"measurement": "LSS gene expression (Q-PCR)", "setting": "[7]; [8]", "value": 0.295}, {"measurement": "PNPLA3 gene expression (Q-PCR)", "setting": "[7]; [8]", "value": 0.187}]}
